Assay results published in patent US20100074881A1, “MULTIPLE NEBULIZER SYSTEMS” (PARION SCIENCES, Inc., priority 2008, published 2010).

Experiments:
airways = settings: concurrent use of hypertonic saline and amiloride; cited from earlier work
airway surface = assay: Airway surface hydration with PS552-02 and hypertonic saline; settings: PS552-02 together with hypertonic saline (3-7%)
Description: (§1) A specific example of an application for the dual-nebulizer technology is illustrated in the following example in which the desired co-delivery of two therapeutic agents that act synergistically is not possible due to the incompatibility of these agents in a single formulation. […] However, due to the poor solubility of PS552-02 in NaCl solutions, these two agents cannot be formulated together. Currently, administration of PS552-02 and hypertonic saline would require two independent nebulizer treatments. However, a dual nebulizer system alleviates this issue by allowing both agents to be simultaneously delivered. Compound PS552-02 is represented by the formula: […]

[1] = Solubility of PS552-02 in NaCl solutions; assay type: physicochemical
Description: as §1

SMILES	effect on water permeability of airways (airways)	airway surface hydration (airway surface)	solubility in NaCl solutions [1]
N=C(N)NC(=O)c1nc(Cl)c(N)nc1N [Amiloride, amiloride]	block the water permeability of airways		
N=C(NCCCCc1ccc(OCC(O)CO)cc1)NC(=O)c1nc(Cl)c(N)nc1N (stereo not drawn) [PS552-02]		synergistically enhance	poor
